Key:
Experiment in all cases: NCI 60 cell line screen
Format in all cases: cell-based
A498 = conditions: Homo sapiens; A498, Renal Cancer; read-out: Percent growth
Method: (§1) Anticancer profiling over a panel of 60 cancer cell lines was carried out at the National Cancer Institute (NCI), Bethesda, Maryland, USA, https://dtp.cancer.gov/discovery_development/nci-60/methodology.htm (Last visit 22 September 2021), using the standard procedure (detailed procedure is located in the Supplementary Information page 50 s).
(§2) NCI standard procedure for 60 cell lines assay
(§3) The human tumor cell lines of the cancer screening panel are grown in RPMI 1640 mediu m containing 5% fetal bovine serum and 2 mM L-glutamine. For a typical screening experiment, cells are inoculated into 96 well microtiter plates in 100 μL at plating densities ranging from 5,000 to 40,000 cells/well depending on the doubling time of individual cell lines. After cell inoculation, the microtiter plates are incubated at 37° C, 5 % CO2, 95 % air and 100 % relative humidity for 24 h prior to addition of experimental drugs.
(§4) After 24 h, two plates of each cell line are fixed in situ with TCA, to represent a measurement of the cell population for each cell line at the time of drug addition (Tz). Experimental drugs are solubilized in dimethyl sulfoxide at 400-fold the desired final maximum test concentration (10 µM) and stored frozen prior to use. At the time of drug addition, an aliquot of frozen concentrate is thawed and diluted to twice the desired final maximum test concentration with co mp lete medium containing 50 μg/ml gentamicin. Additional four, 10-fold or ½ log serial dilutions are made to provide a total of five drug concentrations plus control. Aliquots of 100 μl of these different drug dilutions are added to the appropriate microtiter wells already containing 100 μl of medium, resulting in the required final drug concentrations.
(§5) Following drug addition, the plates are incubated for an additional 48 h at 37°C, 5 % CO2, 95 % air, and 100 % relative humidity. For adherent cells, the assay is terminated by the addition of cold TCA. Cells are fixed in situ by the gentle addition of 50 μl of cold 50 % (w/v) TCA (final concentration, 10 % TCA) and incubated for 60 minutes at 4°C. The supernatant is discarded, and the plates are washed five times with tap water and air dried. Sulforhodamine B (SRB) solution (100 μl) at 0.4 % (w/v) in 1 % acetic acid is added to each well, and plates are incubated for 10 minutes at room temperature. After staining, unbound dye is removed by washing five times with 1 % acetic acid and the plates are air dried. Bound stain is subsequently solubilized with 10 mM trizma base, and the absorbance is read on an automated plate reader at a wavelength of 515 nm. For suspension cells, the methodology is the same except that the assay is terminated by fixing settled cells at the bottom of the wells by g ently adding 50 μl of 80 % TCA (final concentration, 16 % TCA). Using the seven absorbance measurements [time zero, (Tz), control growth, (C), and test growth in the presence of drug at the five concentration levels (Ti)], the percentage growth is calculated at each of the drug concentrations levels. Percentage growth inhibition is calculated as:
(§6) [(Ti-Tz)/(C-Tz)] x 100 for concentrations for which Ti>/=Tz
(§7) [(Ti-Tz)/Tz] x 100 for concentrations for which Ti<Tz.
(§8) Three dose response parameters are calculated for each experimental agent. Growth inhibition of […]
(§9) resulting in a 50% reduction in the net protein increase (as measured by SRB staining) in control cells during the drug incubation. The drug concentration resulting in total growth inhibition […]
(§10) (TGI) is calculated from Ti = Tz.

A549/ATCC = conditions: Homo sapiens, Non-Small Cell Lung Cancer, read-out: Percent growth
Method: as §1, §2, §3, §4, §5, §6, §7, §8, §9, §10

ACHN = conditions: Homo sapiens, Renal Cancer, read-out: Percent growth
Method: as §1, §2, §3, §4, §5, §6, §7, §8, §9, §10

BT-549 = conditions: Homo sapiens; BT-549, Breast Cancer; read-out: Percent growth
Method: as §1, §2, §3, §4, §5, §6, §7, §8, §9, §10

CCRF-CEM = conditions: Homo sapiens, Leukemia, read-out: Percent growth
Method: as §1, §2, §3, §4, §5, §6, §7, §8, §9, §10

COLO 205 = conditions: Homo sapiens; COLO 205, Colon Cancer; read-out: Percent growth
Method: as §1, §2, §3, §4, §5, §6, §7, §8, §9, §10

HCC-2998 = conditions: Homo sapiens; HCC-2998, Colon Cancer; read-out: Percent growth
Method: as §1, §2, §3, §4, §5, §6, §7, §8, §9, §10

HL-60(TB) = conditions: Homo sapiens, Leukemia, read-out: Percent growth
Method: as §1, §2, §3, §4, §5, §6, §7, §8, §9, §10

HOP-62 = conditions: Homo sapiens; HOP-62, Non-Small Cell Lung Cancer; read-out: Percent growth
Method: as §1, §2, §3, §4, §5, §6, §7, §8, §9, §10

HS 578T = conditions: Homo sapiens, Breast Cancer, read-out: Percent growth
Method: as §1, §2, §3, §4, §5, §6, §7, §8, §9, §10

IGROV1 = conditions: Homo sapiens, IGROV-1; IGROV1, Ovarian Cancer; read-out: Percent growth
Method: as §1, §2, §3, §4, §5, §6, §7, §8, §9, §10

LOX IMVI = conditions: Homo sapiens, Melanoma, read-out: Percent growth
Method: as §1, §2, §3, §4, §5, §6, §7, §8, §9, §10

MALME-3M = conditions: Homo sapiens, Melanoma, read-out: Percent growth
Method: as §1, §2, §3, §4, §5, §6, §7, §8, §9, §10

MCF7 = conditions: Homo sapiens; MCF7, Breast Cancer; read-out: Percent growth
Method: as §1, §2, §3, §4, §5, §6, §7, §8, §9, §10

MDA-MB-231/ATCC = conditions: Homo sapiens, Breast Cancer, read-out: Percent growth
Method: as §1, §2, §3, §4, §5, §6, §7, §8, §9, §10

NCI-H322M = conditions: Homo sapiens, Non-Small Cell Lung Cancer, read-out: Percent growth
Method: as §1, §2, §3, §4, §5, §6, §7, §8, §9, §10

OVCAR-5 = conditions: Homo sapiens; OVCAR-5, Ovarian Cancer; read-out: Percent growth
Method: as §1, §2, §3, §4, §5, §6, §7, §8, §9, §10

OVCAR-8 = conditions: Homo sapiens; OVCAR-8, Ovarian Cancer; read-out: Percent growth
Method: as §1, §2, §3, §4, §5, §6, §7, §8, §9, §10

SF-539 = conditions: Homo sapiens; SF-539, CNS-Cancer; read-out: Percent growth
Method: as §1, §2, §3, §4, §5, §6, §7, §8, §9, §10

SK-MEL-2 = conditions: Homo sapiens; SK-MEL-2, Melanoma; read-out: Percent growth
Method: as §1, §2, §3, §4, §5, §6, §7, §8, §9, §10

SN12C = conditions: Homo sapiens, Renal Cancer, read-out: Percent growth
Method: as §1, §2, §3, §4, §5, §6, §7, §8, §9, §10

SW-620 = conditions: Homo sapiens; SW-620, Colon Cancer; read-out: Percent growth
Method: as §1, §2, §3, §4, §5, §6, §7, §8, §9, §10

TK-10 = conditions: Homo sapiens; TK-10, Renal Cancer; read-out: Percent growth
Method: as §1, §2, §3, §4, §5, §6, §7, §8, §9, §10

UACC-62 = conditions: Homo sapiens; UACC-62, Melanoma; read-out: Percent growth
Method: as §1, §2, §3, §4, §5, §6, §7, §8, §9, §10

Row | Structure (SMILES) | activity at 10 µM (A498) | activity at 10 µM (A549/ATCC) | activity at 10 µM (ACHN) | activity at 10 µM (BT-549) | activity at 10 µM (CCRF-CEM) | activity at 10 µM (COLO 205) | activity at 10 µM (HCC-2998) | activity at 10 µM (HL-60(TB)) | activity at 10 µM (HOP-62) | activity at 10 µM (HS 578T) | activity at 10 µM (IGROV1) | activity at 10 µM (LOX IMVI) | activity at 10 µM (MALME-3M) | activity at 10 µM (MCF7) | activity at 10 µM (MDA-MB-231/ATCC) | activity at 10 µM (NCI-H322M) | activity at 10 µM (OVCAR-5) | activity at 10 µM (OVCAR-8) | activity at 10 µM (SF-539) | activity at 10 µM (SK-MEL-2) | also measured
1 | O=S(=O)(NCCNc1nccc(-n2cnc3ccccc32)n1)c1ccc(F)cc1 [12b, N-(2-((4-(1H-benzo [d]imidazol-1-yl)pyrimidin-2-yl)amino)ethyl)-4-fluorobenzenesulfonamide] | 80.7% | 91.3% | 88.3% | 82.2% | 93.5% | 102% | 104% | 106% | 90.9% | 85.5% | 89.3% | 93.2% | 93.7% | 87.7% | 81.8% | 95.6% | 86.6% | 89% | 83.7% | 101% | activity at 10 µM (SN12C): 89.7%; activity at 10 µM (SW-620): 100%; activity at 10 µM (TK-10): 97.8%; activity at 10 µM (UACC-62): 71.3%
2 | O=S(=O)(NCCCNc1nccc(-n2cnc3ccccc32)n1)c1ccc(F)cc1 [12i, N-(3-((4-(1H-benzo [d]imidazol-1-yl)pyrimidin-2-yl)amino)propyl)-4-fluorobenzenesulfonamide] | 70.5% | 88.8% | 81.2% | 34.9% | 49% | 86% | 102% | 90.9% | 82.7% | 82.4% | 91.8% | 74% | 86.1% | 63.7% | 74.4% | 99.5% | 98.6% | 62.5% | 86.2% | 85.8% | activity at 10 µM (SN12C): 89%; activity at 10 µM (SW-620): 96.2%; activity at 10 µM (TK-10): 91.9%; activity at 10 µM (UACC-62): 61.6%
